Activity calls are given as the source filed them. No cut-off for these calls is given here.
Key:
KB 3-1 [1] = assay: Cytotoxicity against human epidermoid carcinoma KB-3-1 cells; type: functional, cell-based
K562 [2] = assay: Increase in the level of drug efflux in Dox-resistant K562 cells in presence of cyclosporine over its absence; type: functional, cell-based; settings: Homo sapiens
K562 [3] = assay: Drug resistance index, ratio of IC50 in Dox-resistant K562 cells over Dox-sensitive cells; type: functional, Homo sapiens
K562 [4] = assay: Increase in the level of drug uptake in Dox-resistant K562 cells in presence of cyclosporine over its absence; type: functional, cell-based; settings: Homo sapiens
K562 [5] = assay: Increase in cytotoxicity against Dox-resistant K562 cells in presence of Cyclosporine over its absence; type: functional, cell-based; settings: Homo sapiens
Mus musculus [6] = assay: Survival in mice with Dox-resistant K562 xenografts after 50 days at 5-10 mg/kg, ip; type: functional
KB 3-1 [7] = assay: Cytotoxicity against drug resistant KB-V cells; type: functional, cell-based; settings: Homo sapiens
K562 [8] = assay: Cytotoxicity against Dox-resistant K562 cells by MTS; type: functional, cell-based; settings: Homo sapiens
K562 [9] = assay: Cytotoxicity against Dox-resistant K562 cells by MTS at 1 uM and in absence of cyclosporine; type: functional, Homo sapiens
Mus musculus [10] = assay: Mortality in mice with Dox-resistant K562 xenografts in 20 days at 5-10 mg/kg, ip; type: functional
K562 [11] = assay: Cytotoxicity against Dox-resistant K562 cells by MTS at 1 uM and in presence of cyclosporine; type: functional, Homo sapiens

Row | Compound | Activity (K562 [2]) | Ratio IC50 (K562 [3]) | Activity (K562 [4]) | also measured
1 | COc1cccc2c1C(=O)c1c(O)c3c(c(O)c1C2=O)C[C@@](O)(C(C)=O)C[C@@H]3O[C@H]1C[C@H](N=[N+]=[N-])[C@H](O)[C@H](C)O1 | inactive | 13 | inactive | IC50 (KB 3-1 [1]): 300 nM; Activity (K562 [5]): inactive; Activity (Mus musculus [6]): 100%; IC50 (KB 3-1 [7]): 300 nM
2 | COc1cccc2c1C(=O)c1c(O)c3c(c(O)c1C2=O)C[C@@](O)(C(C)=O)C[C@@H]3O[C@H]1C[C@H](n2cc(CCCCO)nn2)[C@H](O)[C@H](C)O1 | inactive |  | inactive | 
3 | COc1cccc2c1C(=O)c1c(O)c3c(c(O)c1C2=O)C[C@@](O)(C(C)=O)C[C@@H]3O[C@H]1C[C@H](n2cc(CCO)nn2)[C@H](O)[C@H](C)O1 | inactive |  | inactive | 
4 | COc1cccc2c1C(=O)c1c(O)c3c(c(O)c1C2=O)C[C@@](O)(C(C)=O)C[C@@H]3O[C@H]1C[C@H](n2cc(CO)nn2)[C@H](O)[C@H](C)O1 | inactive |  | inactive | 
5 | COc1cccc2c1C(=O)c1c(O)c3c(c(O)c1C2=O)C[C@@](O)(C(C)=O)C[C@@H]3O[C@H]1C[C@H](N)[C@H](O)[C@H](C)O1 [DAUNORUBICIN] | Active | 333 | Active | IC50 (K562 [8]): > 5000 nM; Activity (K562 [9]): 30%; Activity (Mus musculus [10]): 50%; Activity (K562 [11]): 70%
6 | COc1cccc2c1C(=O)c1c(O)c3c(c(O)c1C2=O)C[C@@](O)(C(C)=O)C[C@@H]3O[C@H]1C[C@H](n2cc(CCCO)nn2)[C@H](O)[C@H](C)O1 | inactive |  | inactive | 

Reference: ChEMBL document CHEMBL1149383, “Discovery of a daunorubicin analogue that exhibits potent antitumor activity and overcomes P-gp-mediated drug resistance” (J Med Chem, 2006)
